Tests used:
[1] = molecular target: T1, recombinant PCSK9 (Homo sapiens, UniProt Q8NBP7); assay: DiI-LDL Uptake Assay in HepG2 cells; type: cell-based; details: 2.5 ug/mL PCSK9, DiI-LDL 5 ug/ml, read-out: Uptake Assay: % Inhibition of 2.5 ug/mL recombinant PCSK9 @ X compound dose; for inhibition at 1.25 µM: 1.25 uM compound
Method: The cells were incubated in a 96-well plate for a total of 16 h in the absence or presence of recombinant PCSK9 (final concentration 2.5 ug/ml) protein alone or recombinant PCSK9 protein pre-mixed with indicated concentration of experimental compounds (Cmpd #). After 16 h, DiI-LDL (final concentration 5 ug/ml) was added to the incubation mixtures. After 4 h, cells are stained with Hoechst 33342 for 30 minutes, then rinsed with phosphate buffered saline, and then a final volume of 100 ul phosphate buffered saline was added to each well. The fluorescence was measured (DiI: excitation at 550 nm and emission at 590 nm; Hoechst: excitation at 355 nm, emission at 460 nm). The percent recombinant PCSK9 inhibition was calculated as [‘Compound Dose DiI Fluorescence’-‘2.5 ug/ml PCSK9-treated DiI Fluorescence’]/[‘No PCSK9 DiI Fluorescence’-‘2.5 ug/ml PCSK9-treated DiI Fluorescence’]×100%.
Cellular DiI-LDL uptake can be measured using protocols adapted from Benjannet et al., “Effects of the prosegment and pH on the activity of PCSK9: evidence for additional processing events” J Biol Chem. 285(52): 40965-40978 (2010) and “Composition and Methods of Use of Small Molecules as Binding Ligands for the Modulation of Proprotein Convertase Subtilisin/Kexin Type 9 (PCSK9) Protein Activity” (WO2016029037), which are incorporated by reference in their entirety.
Cells, such as HepG2, HuH7, FL83B, or a cell line transfected with a short-hairpin PCSK9 knockdown sequence such as HepG2/shPCSK9, HuH7/shPCSK9, or FL83B/shPCSK9 are plated and cultured at 37° C. for 12-24 h. Culture media is removed and replaced with fresh lipoprotein-depleted culture media supplemented with 5 ug/mL of DiI-LDL (Kalen Biomedical) or lipoprotein-depleted culture media supplemented with 5 ug/mL of DiI-LDL plus a predetermined concentration of recombinant PCSK9, for example a 10 nM final concentration of PCSK9. Lipoprotein-depleted culture media can be composed of DMEM (Invitrogen) with 10% lipoprotein-depleted fetal bovine serum (Kalen Biomedical) and supplemented with penicillin-streptomycin (Life Technologies). Cells are dosed with small molecule test compounds at doses ranging from 0 nM to 100 uM.
Following an incubation period of specified length, such as 6 hours, Hoechst 33342 (AnaSpec) stain is added to the cell media per manufacturer's instructions and incubated for a specified length (e.g., 30 minutes). The lipoprotein-depleted media is removed and cells rinsed three times with phosphate buffered saline. A final volume of phosphate buffered saline is added back to the wells. The DiI fluorescence is measured with a plate reader using an exciting wavelength of 550 nm and the resulting emission at 590 nm is measured. The Hoechst stain fluorescence is measured with a plate reader using an exciting wavelength of 355 nm and the resulting emission at 460 nm is measured.
Cells are analyzed by for both Hoechst stain (DNA content) and DiI-LDL fluorescence. Cells incubated with small molecule compounds that are inhibitors of PCSK9 will be expected to show increased amounts of DiI-LDL fluorescence, relative to control (no compound) specimens, and cells incubated with small molecule compounds that are activators of PCSK9 will be expected to show decreased amounts of DiI-LDL fluorescence relative to control (no compound) specimens.

[2] = molecular target: T1, recombinant PCSK9; assay: LDLR Flow / FACS Assay in HuH7 cells; type: cell-based; details: 5.0 ug/mL PCSK9, 6 h, read-out: LDLR Flow Assay: % Inhibition of 5.0 ug/mL recombinant PCSK9 @ X compound dose; for inhibition at 1.25 µM: Huh-7, 1.25 uM compound
Method: The cells were incubated in 24-well plates for a total of 6 h in the absence or presence of recombinant PCSK9 protein (final concentration of 5.0 ug/ml), or in the presence of PCSK9 protein mixed with indicated concentration of experimental compound (Cmpd #). After 6 hours, the cells were released from the plate, stained with anti-LDLR antibody, then rinsed, counterstained with DAPI, and then measured by fluorescence activated cell sorting (FACS). The percent recombinant PCSK9 inhibition was calculated as [‘Compound Dose LDLR Fluorescence’-‘5.0 ug/ml PCSK9-treated LDLR Fluorescence’]/[‘No PCSK9 Basal LDLR Fluorescence’-‘5.0 ug/ml PCSK9-treated LDLR Fluorescence’]×100%.
LDLR levels can be measured using flow cytometry or fluorescence activated cell sorting (FACS) using protocols adapted from Benjannet et al., “Effects of the prosegment and pH on the activity of PCSK9: evidence for additional processing events” J Biol Chem. 285(52): 40965-40978 (2010) and “Composition and Methods of Use of Small Molecules as Binding Ligands for the Modulation of Proprotein Convertase Subtilisin/Kexin Type 9 (PCSK9) Protein Activity” (WO2016029037), which are incorporated by reference in their entirety.
Cells, such as HepG2, HuH7, FL83B, or a cell line transfected with a short-hairpin PCSK9 knockdown sequence such as HepG2/shPCSK9, HuH7/shPCSK9, or FL83B/shPCSK9 are plated and cultured at 37° C. for 12-24 h. Culture media is removed and replaced with fresh culture media or culture media plus a predetermined amount of recombinant PCSK9, for example a 10 nM final concentration of PCSK9. Cell culture media can be composed of DMEM (Invitrogen) with 10% fetal bovine serum (Life Technologies) supplemented with penicillin-streptomycin (Life Technologies). Cells are dosed with small molecule test compounds at doses ranging from 0 nM to 100 uM […]
Cells are analyzed for both cell viability marker (dead cells) and LDLR in live cells using a flow cytometer per the manufacturer's operating manual. […]

T1 sequence (Q8NBP7 153-692): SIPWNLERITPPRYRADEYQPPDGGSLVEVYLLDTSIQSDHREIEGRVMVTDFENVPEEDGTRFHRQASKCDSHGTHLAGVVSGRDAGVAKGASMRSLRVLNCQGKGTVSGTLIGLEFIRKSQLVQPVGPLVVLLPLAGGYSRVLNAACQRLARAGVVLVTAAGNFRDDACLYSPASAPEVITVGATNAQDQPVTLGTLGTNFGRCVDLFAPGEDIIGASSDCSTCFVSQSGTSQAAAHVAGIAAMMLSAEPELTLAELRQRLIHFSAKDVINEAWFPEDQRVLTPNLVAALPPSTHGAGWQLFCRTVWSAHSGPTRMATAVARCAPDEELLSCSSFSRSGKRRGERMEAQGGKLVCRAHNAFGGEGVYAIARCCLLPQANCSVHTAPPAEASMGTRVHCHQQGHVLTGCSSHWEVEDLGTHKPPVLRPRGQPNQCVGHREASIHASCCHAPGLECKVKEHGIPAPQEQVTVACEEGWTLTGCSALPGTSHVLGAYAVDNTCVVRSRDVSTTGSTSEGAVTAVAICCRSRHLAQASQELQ

Structure (SMILES)	inhibition at 1.25 µM [1] [%]	inhibition at 10 µM ([1]; 10 uM compound) [%]	inhibition at 1.25 µM [2] [%]	inhibition at 10 µM ([2]; Huh-7, 10 uM compound) [%]
CC(C)NC(=O)[C@@H](N)Cc1ccc(-c2ccccc2)cc1 [Compound 1, (S)-3-([1,1′-biphenyl]-4-yl)-2-amino-N-isopropylpropanamide]	~15	> 100	~15	~55
CC(C)NC(=O)[C@@H](N)Cc1ccc(-c2cc[nH]c(=O)c2)cc1 [Compound 2, (S)-2-amino-N-isopropyl-3-(4-(2-oxo-1,2-dihydropyridin-4-yl)phenyl)propanamide]	~40			
CC(C)NC(=O)[C@@H](N)Cc1ccc(-c2cccc(O)c2)cc1 [Compound 3, (S)-2-amino-3-(3′-hydroxy-[1,1′-biphenyl]-4-yl)-N-isopropylpropanamide]	~44			
Cc1cc(C[C@H](N)C(=O)NC(C)C)ccc1-c1cccc(O)c1 [Compound 4, (S)-2-amino-3-(3′-hydroxy-2-methyl-[1,1′-biphenyl]-4-yl)-N-isopropylpropanamide]	~28		~10	

Source: US10821106B2, “Composition and methods of use of novel phenylalanine small organic compounds to directly modulate PCSK9 protein activity” (SRX Cardio, LLC, priority 2015, dated 2020)
